From ChEMBL document CHEMBL1201862, “PubChem BioAssay data set” (2004)
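Assay format: 96-well plates, 48-hour exposure. GI50 marks 50% less growth.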 Calls of active or inactive are those of the source. Cut-off read from the data, not from the text of the source: active = GI50 up to about 1.1 µM and inactive = higher.

How the values were obtained:
Assay in all cases: NCI anticancer screen, dose series, 48 h
NCI-H460 = tested on: NCI-H460
SNB-75 = tested on: SNB-75
CAKI-1 = tested on: CAKI-1
A498 = tested on: A498
MDA-MB-435 = tested on: MDA-MB-435
DU-145 = tested on: DU-145
PC-3 = tested on: PC-3
Hs-578T = tested on: Hs-578T
ACHN = tested on: ACHN
SF-539 = tested on: SF-539
RPMI-8226 = tested on: RPMI-8226
NCI-H23 = tested on: NCI-H23
UACC-62 = tested on: UACC-62
SNB-19 = tested on: SNB-19
EKVX = tested on: EKVX
COLO 205 = tested on: COLO 205
HL-60 = tested on: HL-60
A549 = tested on: A549
SK-MEL-2 = tested on: SK-MEL-2
OVCAR-3 = tested on: OVCAR-3
OVCAR-5 = tested on: OVCAR-5
KM12 = tested on: KM12
K562 = tested on: K562
UACC-257 = tested on: UACC-257
U-251 = tested on: U-251
SW-620 = tested on: SW-620
HOP-92 = tested on: HOP-92
NCI/ADR-RES = tested on: NCI/ADR-RES
OVCAR-4 = tested on: OVCAR-4
SF-268 = tested on: SF-268
SF-295 = tested on: SF-295
M14 = tested on: M14
SK-OV-3 = tested on: SK-OV-3
MDA-N = tested on: MDA-N
IGROV-1 = tested on: IGROV-1
TK-10 = tested on: TK-10
LOX IMVI = tested on: LOX IMVI
BT-549 = tested on: BT-549
MDA-MB-231 = tested on: MDA-MB-231
MCF7 = tested on: MCF7
T47D = tested on: T47D
SN12C = tested on: SN12C
OVCAR-8 = tested on: OVCAR-8
HT-29 = tested on: HT-29
CCRF-CEM = tested on: CCRF-CEM
HCC 2998 = tested on: HCC 2998
UO-31 = tested on: UO-31
SK-MEL-5 = tested on: SK-MEL-5
MOLT-4 = tested on: MOLT-4
HCT-15 = tested on: HCT-15
SK-MEL-28 = tested on: SK-MEL-28
Malme-3M = tested on: Malme-3M
NCI-H522 = tested on: NCI-H522
NCI-H226 = tested on: NCI-H226
HCT-116 = tested on: HCT-116
786-0 = tested on: 786-0
HOP-62 = tested on: HOP-62
RXF 393 = tested on: RXF 393

Measured: GI50

COC(=O)C1=COC2OC3C(C(C)O)C(=O)OC34C=CC1C24 (stereo not given)
31.9 µM: HCT-15
inactive: NCI-H460 49.2 µM | SNB-75 35.8 µM | CAKI-1 55 µM | A498 98.6 µM | MDA-MB-435 31.6 µM | DU-145 57.1 µM | PC-3 85.5 µM | Hs-578T 34 µM | ACHN 44.7 µM | SF-539 30.1 µM | RPMI-8226 29.1 µM | NCI-H23 80.9 µM | UACC-62 29.3 µM | SNB-19 51.5 µM | EKVX 81.7 µM | COLO 205 40.6 µM | HL-60 15.5 µM | A549 > 100 µM | SK-MEL-2 31 µM | OVCAR-3 29.5 µM | OVCAR-5 51.9 µM | KM12 37.2 µM | K562 32.2 µM | UACC-257 > 100 µM | U-251 60 µM | SW-620 29.4 µM | HOP-92 55.7 µM | NCI/ADR-RES 25 µM | OVCAR-4 > 100 µM | SF-268 49 µM | SF-295 56.6 µM | M14 55.6 µM | SK-OV-3 59.7 µM | MDA-N 29.6 µM | IGROV-1 71.6 µM | TK-10 61.2 µM | LOX IMVI 47.3 µM | BT-549 40.4 µM | MDA-MB-231 > 100 µM | MCF7 40.1 µM | T47D 39.4 µM | SN12C 50.1 µM | OVCAR-8 20.9 µM | HT-29 44 µM | CCRF-CEM 14.9 µM | HCC 2998 > 100 µM | UO-31 74.6 µM | SK-MEL-5 57 µM | MOLT-4 24.3 µM | SK-MEL-28 31 µM | Malme-3M 36.6 µM | NCI-H522 14.8 µM | NCI-H226 > 100 µM | HCT-116 47.5 µM | 786-0 53.8 µM

CCOC(=O)c1c[nH]cc1-c1cn(S(=O)(=O)c2ccccc2)cc1C
inactive: NCI-H460 18.4 µM | SNB-75 15.3 µM | CAKI-1 17.7 µM | A498 > 10 µM | MDA-MB-435 > 10 µM | DU-145 50.7 µM | HOP-62 31.5 µM | PC-3 18.6 µM | Hs-578T 11.9 µM | ACHN 18.9 µM | SF-539 21.9 µM | NCI-H23 24.6 µM | UACC-62 15.3 µM | SNB-19 31.8 µM | EKVX 14.6 µM | COLO 205 20.1 µM | HL-60 26.2 µM | A549 30.5 µM | SK-MEL-2 32.2 µM | OVCAR-3 18.8 µM | OVCAR-5 52.7 µM | KM12 19.6 µM | K562 19.1 µM | UACC-257 17.1 µM | U-251 25.6 µM | SW-620 > 10 µM | HOP-92 26 µM | NCI/ADR-RES 22.2 µM | OVCAR-4 39.4 µM | SF-268 25.9 µM | SF-295 33.7 µM | M14 21.7 µM | SK-OV-3 25.9 µM | MDA-N 17.9 µM | IGROV-1 26.9 µM | TK-10 35.6 µM | LOX IMVI 23.4 µM | BT-549 27.1 µM | MDA-MB-231 20.5 µM | MCF7 29 µM | T47D 18.2 µM | SN12C 25.2 µM | OVCAR-8 28.7 µM | HT-29 21.2 µM | CCRF-CEM 24.9 µM | HCC 2998 17.5 µM | UO-31 27.5 µM | RXF 393 47.1 µM | SK-MEL-5 > 10 µM | MOLT-4 20.4 µM | SK-MEL-28 19.8 µM | Malme-3M 15 µM | NCI-H522 15.6 µM | HCT-116 21.6 µM | 786-0 37.1 µM
22.9 µM: HCT-15

COCOc1cc(OC)ccc1C/C(=N/O)C(=O)OC
> 100 µM: HCT-15
inactive: NCI-H460 > 100 µM | SNB-75 31.8 µM | CAKI-1 > 100 µM | MDA-MB-435 > 100 µM | DU-145 > 100 µM | HOP-62 > 100 µM | PC-3 > 100 µM | Hs-578T > 100 µM | ACHN > 100 µM | SF-539 > 100 µM | NCI-H23 > 100 µM | UACC-62 > 100 µM | SNB-19 > 100 µM | EKVX > 100 µM | COLO 205 > 100 µM | HL-60 > 100 µM | A549 > 100 µM | SK-MEL-2 > 100 µM | OVCAR-3 > 100 µM | OVCAR-5 > 100 µM | KM12 > 100 µM | K562 > 100 µM | UACC-257 > 100 µM | U-251 > 100 µM | SW-620 > 100 µM | NCI/ADR-RES > 100 µM | OVCAR-4 > 100 µM | SF-268 > 100 µM | SF-295 > 100 µM | M14 > 100 µM | SK-OV-3 > 100 µM | MDA-N > 100 µM | IGROV-1 > 100 µM | TK-10 > 100 µM | LOX IMVI > 100 µM | BT-549 > 100 µM | MDA-MB-231 > 100 µM | MCF7 > 100 µM | T47D > 100 µM | SN12C > 100 µM | OVCAR-8 > 100 µM | HT-29 > 100 µM | CCRF-CEM > 100 µM | HCC 2998 > 100 µM | UO-31 > 100 µM | RXF 393 > 100 µM | SK-MEL-5 > 100 µM | MOLT-4 > 100 µM | SK-MEL-28 > 100 µM | Malme-3M > 100 µM | NCI-H522 > 100 µM | NCI-H226 > 100 µM | HCT-116 > 100 µM | 786-0 > 100 µM

CC1(C)CC(=O)C(=CNc2nc(-c3cccc([N+](=O)[O-])c3)cs2)C(=O)C1
inactive: NCI-H460 14.7 µM | SNB-75 14.9 µM | CAKI-1 11.3 µM | A498 13.8 µM | MDA-MB-435 21.4 µM | DU-145 29.4 µM | HOP-62 19.6 µM | PC-3 24.8 µM | Hs-578T 18.9 µM | ACHN 18.2 µM | SF-539 20.8 µM | RPMI-8226 17.9 µM | NCI-H23 18.1 µM | UACC-62 16 µM | SNB-19 15.3 µM | EKVX 14.7 µM | COLO 205 14.8 µM | HL-60 7.52 µM | A549 66.1 µM | SK-MEL-2 55.8 µM | OVCAR-3 29 µM | OVCAR-5 46.3 µM | KM12 16.6 µM | K562 16.6 µM | UACC-257 22.5 µM | U-251 19.6 µM | SW-620 11.9 µM | HOP-92 17.3 µM | NCI/ADR-RES 18 µM | OVCAR-4 27.5 µM | SF-268 15 µM | SF-295 37.2 µM | M14 15.8 µM | SK-OV-3 32.7 µM | MDA-N 17.8 µM | IGROV-1 17.6 µM | TK-10 35.8 µM | LOX IMVI 13.7 µM | BT-549 18.7 µM | MDA-MB-231 18.5 µM | MCF7 15.8 µM | T47D 18.1 µM | SN12C 18.1 µM | OVCAR-8 23.7 µM | HT-29 17 µM | CCRF-CEM 2 µM | HCC 2998 15.7 µM | UO-31 25.6 µM | RXF 393 21.7 µM | MOLT-4 10.5 µM | NCI-H522 9.04 µM | NCI-H226 15.3 µM | HCT-116 14.9 µM | 786-0 15.1 µM
11.6 µM: HCT-15

CCOC(=O)c1cnn2c1ncc1c(=O)n(NC(N)=O)ccc12
> 100 µM: HCT-15
inactive: NCI-H460 > 100 µM | SNB-75 > 100 µM | CAKI-1 > 100 µM | A498 > 100 µM | MDA-MB-435 > 100 µM | DU-145 > 100 µM | HOP-62 > 100 µM | PC-3 > 100 µM | Hs-578T > 100 µM | ACHN > 100 µM | SF-539 > 100 µM | NCI-H23 > 100 µM | UACC-62 > 100 µM | SNB-19 > 100 µM | EKVX > 100 µM | COLO 205 > 100 µM | HL-60 > 100 µM | A549 > 100 µM | SK-MEL-2 > 100 µM | OVCAR-3 > 100 µM | OVCAR-5 > 100 µM | KM12 > 100 µM | UACC-257 > 100 µM | U-251 > 100 µM | SW-620 > 100 µM | HOP-92 > 100 µM | OVCAR-4 > 100 µM | SF-268 > 100 µM | SF-295 > 100 µM | M14 > 100 µM | SK-OV-3 > 100 µM | MDA-N > 100 µM | IGROV-1 > 100 µM | TK-10 > 100 µM | LOX IMVI > 100 µM | BT-549 94.8 µM | MDA-MB-231 > 100 µM | MCF7 > 100 µM | T47D > 100 µM | SN12C > 100 µM | OVCAR-8 > 100 µM | HT-29 > 100 µM | CCRF-CEM > 100 µM | UO-31 > 100 µM | SK-MEL-5 > 100 µM | MOLT-4 > 100 µM | SK-MEL-28 > 100 µM | Malme-3M > 100 µM | NCI-H522 > 100 µM | NCI-H226 > 100 µM | HCT-116 > 100 µM | 786-0 > 100 µM
